Literature values in patent EP2397122A2, “Formulations of neramexane dosage forms” (Merz Pharma GmbH & Co. KGaA, priority 2004, dated 2006).

elimination half-life (T½) (man): 60 to 80 h
absolute bioavailability (oral administration in man): approximately 100%
SMILES: CC12CC3CC(C)(C1)CC(N)(C3)C2 [memantine, 1-amino-3,5-dimethyladamantane]
